Test results as given in ChEMBL document CHEMBL1201862, “PubChem BioAssay data set” (2004).
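Exposure lasted 48 hours, with cells grown in 96-well plates and compounds tested at five concentrations. At the GI50, growth is halved.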 The source made the active and inactive calls. Cut-off read from the data, not from the text of the source: active = GI50 up to about 1.1 µM and inactive = higher.

Columns and labels:
Assay in all cases: NCI-60 cell line screen, 48 h
M14 = tested on: M14
DU-145 = tested on: DU-145
UACC-257 = tested on: UACC-257
IGROV-1 = tested on: IGROV-1
HCT-116 = tested on: HCT-116
ACHN = tested on: ACHN
UACC-62 = tested on: UACC-62
SR = tested on: SR
MDA-N = tested on: MDA-N
OVCAR-5 = tested on: OVCAR-5
HT-29 = tested on: HT-29
A549 = tested on: A549
SNB-19 = tested on: SNB-19
MCF7 = tested on: MCF7
KM12 = tested on: KM12
NCI-H522 = tested on: NCI-H522
COLO 205 = tested on: COLO 205
HCC 2998 = tested on: HCC 2998
SNB-75 = tested on: SNB-75
SK-MEL-5 = tested on: SK-MEL-5

Compound	GI50 (M14)	GI50 (DU-145)	GI50 (UACC-257)	GI50 (IGROV-1)	GI50 (HCT-116)	GI50 (ACHN)	GI50 (UACC-62)	GI50 (SR)	GI50 (MDA-N)	GI50 (OVCAR-5)	GI50 (HT-29)	GI50 (A549)	GI50 (SNB-19)	GI50 (MCF7)	GI50 (KM12)	GI50 (NCI-H522)	GI50 (COLO 205)	GI50 (HCC 2998)	GI50 (SNB-75)	GI50 (SK-MEL-5)
CC(C)OC(=O)c1cc(NC(=S)OC(C)C)ccc1Cl	35.6 µM (inactive)	30.1 µM (inactive)	21.1 µM (inactive)	28.8 µM (inactive)	20.8 µM (inactive)	22.8 µM (inactive)	16.1 µM (inactive)	28.6 µM (inactive)	23.1 µM (inactive)	25.1 µM (inactive)	16.5 µM (inactive)	25.2 µM (inactive)	27 µM (inactive)	20.9 µM (inactive)	13.8 µM (inactive)	13.2 µM (inactive)	14.6 µM (inactive)	> 41.6 µM (inactive)	19.6 µM (inactive)	17.3 µM (inactive)
COc1c(C)c(C/C=C(\C)CC/C=C(\C)CC/C=C(\C)CCC=C(C)C)c(OC)c(OC)c1OC	> 100 µM (inactive)	> 100 µM (inactive)	> 100 µM (inactive)	> 100 µM (inactive)	> 100 µM (inactive)	> 100 µM (inactive)	> 100 µM (inactive)	> 100 µM (inactive)	> 100 µM (inactive)	> 100 µM (inactive)	> 100 µM (inactive)	> 100 µM (inactive)	> 100 µM (inactive)	> 100 µM (inactive)	> 100 µM (inactive)	> 100 µM (inactive)	> 100 µM (inactive)	> 100 µM (inactive)	> 100 µM (inactive)	> 100 µM (inactive)
CCn1cc(C(=O)O)c(=O)c2cc(F)c(N3CCN(CN4C(=O)/C(=N\c5ncc(Cc6cc(OC)c(OC)c(OC)c6)c(N)n5)c5cc(Cl)ccc54)CC3)cc21	> 100 µM (inactive)	> 100 µM (inactive)	> 100 µM (inactive)	8.24 µM (inactive)	74.3 µM (inactive)	> 100 µM (inactive)	> 100 µM (inactive)	41.4 µM (inactive)	45.5 µM (inactive)	> 100 µM (inactive)	> 100 µM (inactive)	> 100 µM (inactive)	> 100 µM (inactive)	82 µM (inactive)	50.2 µM (inactive)	> 100 µM (inactive)	> 100 µM (inactive)	42.2 µM (inactive)	> 100 µM (inactive)	> 100 µM (inactive)
O=c1[nH]nc(-c2ccccc2)n1/N=C/c1c(O)ccc2ccccc12	93.8 µM (inactive)	76.4 µM (inactive)	68.5 µM (inactive)	> 100 µM (inactive)	30 µM (inactive)	26.3 µM (inactive)	54.8 µM (inactive)	72.6 µM (inactive)	73.6 µM (inactive)	> 100 µM (inactive)	86.5 µM (inactive)	24.9 µM (inactive)	24.9 µM (inactive)	59.7 µM (inactive)	6.75 µM (inactive)	91.2 µM (inactive)	31.8 µM (inactive)	28.4 µM (inactive)	31.7 µM (inactive)	30.2 µM (inactive)
O=C1Nc2ccccc2/C1=C1/Nc2ccccc2/C1=N\OCCNCC(O)C(O)C(O)C(O)CO (stereo not given)	20.9 µM (inactive)	21.2 µM (inactive)	13.5 µM (inactive)	6.62 µM (inactive)	13.4 µM (inactive)	> 50 µM (inactive)	8.93 µM (inactive)	9.55 µM (inactive)	9.89 µM (inactive)	> 50 µM (inactive)	16.9 µM (inactive)	44.4 µM (inactive)	13.6 µM (inactive)	12.4 µM (inactive)	5.14 µM (inactive)	13.4 µM (inactive)	12.1 µM (inactive)	11.8 µM (inactive)	11 µM (inactive)	8.36 µM (inactive)
COC1=CC2(C=CC1=O)CCNC1=C2C(=O)c2nc[nH]c2C1=O (stereo not given)	> 100 µM (inactive)	> 100 µM (inactive)	> 100 µM (inactive)	> 100 µM (inactive)	> 100 µM (inactive)	> 100 µM (inactive)	> 100 µM (inactive)	> 100 µM (inactive)	> 100 µM (inactive)	> 100 µM (inactive)	> 100 µM (inactive)	> 100 µM (inactive)	> 100 µM (inactive)	> 100 µM (inactive)	> 100 µM (inactive)	32.3 µM (inactive)	> 100 µM (inactive)	> 100 µM (inactive)	> 100 µM (inactive)	> 100 µM (inactive)
COC(=O)C1Cc2ccc(C)cc2C1=O (stereo not given)	> 100 µM (inactive)	> 100 µM (inactive)	> 100 µM (inactive)	> 100 µM (inactive)	> 100 µM (inactive)	> 100 µM (inactive)	> 100 µM (inactive)	> 100 µM (inactive)	> 100 µM (inactive)	> 100 µM (inactive)	> 100 µM (inactive)	> 100 µM (inactive)	> 100 µM (inactive)	> 100 µM (inactive)	83.4 µM (inactive)	> 100 µM (inactive)	> 100 µM (inactive)	> 100 µM (inactive)	> 100 µM (inactive)	50.7 µM (inactive)
CN(C)CCCOC(=O)C(O)(Cc1ccccc1)C1CC1 (stereo not given)	> 100 µM (inactive)	> 100 µM (inactive)	> 100 µM (inactive)	> 100 µM (inactive)	> 100 µM (inactive)	> 100 µM (inactive)	> 100 µM (inactive)	> 100 µM (inactive)	> 100 µM (inactive)	> 100 µM (inactive)	> 100 µM (inactive)	> 100 µM (inactive)	> 100 µM (inactive)	> 100 µM (inactive)	> 100 µM (inactive)	> 100 µM (inactive)	> 100 µM (inactive)	> 100 µM (inactive)	79.8 µM (inactive)	> 100 µM (inactive)
CN1CCCC(OC(=O)c2cc3cc(CCl)ccc3oc2=O)C1 (stereo not given)	14.8 µM (inactive)	29.9 µM (inactive)	18.1 µM (inactive)	28.6 µM (inactive)	19.2 µM (inactive)	23.3 µM (inactive)	17.3 µM (inactive)	21.9 µM (inactive)	18.2 µM (inactive)	21.6 µM (inactive)	19.5 µM (inactive)	29.8 µM (inactive)	27.7 µM (inactive)	20.4 µM (inactive)	24 µM (inactive)	15.9 µM (inactive)	17.2 µM (inactive)	18.3 µM (inactive)	22.2 µM (inactive)	17.3 µM (inactive)
O=C1c2ccccc2-c2c1c1ccccc1c(=O)n2-c1ccccc1	47.2 µM (inactive)	59.7 µM (inactive)	> 82.4 µM (inactive)	13.8 µM (inactive)	4.17 µM (inactive)	5.09 µM (inactive)	11.1 µM (inactive)	> 100 µM (inactive)	> 79.1 µM (inactive)	45.5 µM (inactive)	> 31.5 µM (inactive)	13.1 µM (inactive)	5.7 µM (inactive)	19.3 µM (inactive)	14.6 µM (inactive)	18.2 µM (inactive)	> 46.5 µM (inactive)	66.4 µM (inactive)	13.1 µM (inactive)	9.66 µM (inactive)
CC(=O)NC(CCCCN(Cc1ccccc1)C(=O)N(CCCl)N=O)C(=O)NCc1ccccc1 (stereo not given)	41.7 µM (inactive)	25.7 µM (inactive)	24.3 µM (inactive)	39.7 µM (inactive)	> 49.5 µM (inactive)	14.3 µM (inactive)	3.15 µM (inactive)	1.1 µM (active)	14.9 µM (inactive)	> 67.6 µM (inactive)	42 µM (inactive)	22.1 µM (inactive)	16.7 µM (inactive)	16.3 µM (inactive)	38.5 µM (inactive)	39 µM (inactive)	42.2 µM (inactive)	> 100 µM (inactive)	19.5 µM (inactive)	> 100 µM (inactive)
CC[C@@]1(O)C(=O)OCc2c1cc1n(c2=O)Cc2c-1nc1ccccc1c2/C=N\NC(=O)C(N)CS (stereo not given in full)	0.665 µM (active)	0.435 µM (active)	7.26 µM (inactive)	6.7 µM (inactive)	1.7 µM (inactive)	0.262 µM (active)	0.0614 µM (active)	0.0373 µM (active)	9.4 µM (inactive)	17.3 µM (inactive)	9.29 µM (inactive)	2 µM (inactive)	0.571 µM (active)	0.206 µM (active)	24.8 µM (inactive)	0.883 µM (active)	41.4 µM (inactive)	9.46 µM (inactive)	0.573 µM (active)	1.13 µM (inactive)
CC1(C)C2CCC1(CS(=O)(=O)Nc1ccccc1)C(=O)C2 (stereo not given)	> 100 µM (inactive)	> 100 µM (inactive)	> 100 µM (inactive)	> 100 µM (inactive)	> 100 µM (inactive)	> 100 µM (inactive)	> 100 µM (inactive)	35.5 µM (inactive)	> 100 µM (inactive)	> 100 µM (inactive)	> 100 µM (inactive)	> 100 µM (inactive)	> 100 µM (inactive)	> 100 µM (inactive)	> 100 µM (inactive)	> 100 µM (inactive)	> 100 µM (inactive)	> 100 µM (inactive)	89.9 µM (inactive)	> 100 µM (inactive)
